Consider six compounds from patent US7709223B2, “Method for detecting bacteria with chromogenic substrates for β-D-ribofuranosidase” (priority 2001, dated 2010).

Where a name gives a salt, the structure may show the parent alone.

Experiment [1] has as its system E. coli. Nature of the experiment: Aluminium salt-containing medium with mixed culture. It is filed as cell-based. As to conditions: mixed culture of E. coli and Yersinia enterocolitica. As for the experimental part: (§1) The substrate was evaluated using the general method of example 2 but using a range of different metal salts and a culture of E. coli alone. The metal salts shown in Table 5, below, were used at a concentration of 500 mg/l.
(§2) When the aluminium salt-containing medium was used with a mixed culture of E. coli and Yersinia enterocolitica, the E. coli colonies were bright yellow and stood out very clearly.

Experiment [2] deals with Yersinia enterocolitica. Described as above. It is filed as cell-based. As to conditions: mixed culture of E. coli and Yersinia enterocolitica. As for the experimental part: as §1, §2
In experiment [3] the test system is β-D-ribofuranosidase positive strains. Nature of the experiment: Further substrates on agar plates, colony appearance. It is filed as cell-based. The method, then:
(§3) The chromogenic β-D-ribofuranoside substrate was added to Columbia agar at a substrate concentration of 300 mg/l. Ferric ammonium citrate was included at 500 mg/l. All ingredients were autoclaved at 116° C. for 20 minutes to ensure sterilisation. Agar plates were then prepared in 90 mm petri dishes. The substrate caused a yellow colouration of the agar.
(§4) For each strain tested, a bacterial suspension was prepared in sterile deionised water at an inoculum of approximately 1.5×10^8 colony forming units per ml. This was achieved using a densitometer. 1 μl of each bacterial suspension was then inoculated onto each plate using a multipoint inoculator. Strains were inoculated in parallel onto Columbia agar containing ferric ammonium citrate with no substrate (negative control).
(§5) After 18 hours incubation, strains were examined visually for the presence of colour. Any strains producing a black colouration on substrate containing media but not on the negative control plates were deemed to be hydrolysing the substrate.
(§6) The same evaluation method as described above in Example 2 was utilised.

Experiment [4] relates to β-D-ribofuranosidase negative strains. The description is as above. It is filed as cell-based. The method, then: as §3, §4, §5, §6
For experiment [5], the system named is K. pneumoniae. Nature of the experiment: Hydrolysis on Columbia agar with ferric ammonium citrate. It is filed as cell-based. As to conditions: K. pneumoniae. The method, then:
as §3, §4, §5

In experiment [6] the test system is Shigella sonnei. Described as above. It is filed as cell-based. As to conditions: S. sonnei. As for the experimental part: as §3, §4, §5
Experiment [7] deals with E. coli. The experiment is described as above. As to conditions: E. coli; weaker reaction. It is filed as cell-based. The method, then: as §3, §4, §5
For experiment [8], the system named is E. aerogenes. Described as above. It is filed as cell-based. As to conditions: E. aerogenes; weaker reaction. As for the experimental part: as §3, §4, §5
Experiment [9] concerns E. coli. Nature of the experiment: Evaluation with metal salts forming chelates, colour of colonies. It is filed as cell-based. The method, then: as §3, §4, §5, §1
The target of experiment [10] is AMP nucleosidase (Escherichia coli, UniProt P0AE12). As to conditions: N-ribohydrolase from E. coli, AMP nucleosidase (Schramm et al, WO97/31008); cited from earlier work.
Sequence of AMP nucleosidase (P0AE12 whole entry): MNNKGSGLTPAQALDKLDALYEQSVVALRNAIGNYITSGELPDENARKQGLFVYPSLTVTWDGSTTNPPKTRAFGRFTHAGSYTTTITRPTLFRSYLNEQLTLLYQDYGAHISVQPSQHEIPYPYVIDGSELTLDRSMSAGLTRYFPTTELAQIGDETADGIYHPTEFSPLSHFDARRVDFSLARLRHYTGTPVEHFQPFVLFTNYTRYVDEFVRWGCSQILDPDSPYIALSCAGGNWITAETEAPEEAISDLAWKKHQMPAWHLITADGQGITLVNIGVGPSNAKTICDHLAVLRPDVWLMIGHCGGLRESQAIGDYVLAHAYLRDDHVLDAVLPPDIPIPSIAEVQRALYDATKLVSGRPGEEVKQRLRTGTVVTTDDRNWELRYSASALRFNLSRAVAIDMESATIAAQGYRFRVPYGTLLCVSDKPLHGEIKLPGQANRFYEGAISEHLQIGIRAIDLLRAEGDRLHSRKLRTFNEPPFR

For the compound `COc1c(-c2ccc(O[C@@H]3O[C@H](CO)[C@@H](O)[C@H]3O)c(O)c2)oc2ccccc2c1=O`, the “Colour of E. coli colonies” value in experiment [1] is reported as “bright yellow”. In addition, the “Colour of Y. enterocolitica colonies” value in experiment [2] is “colourless”.

Regarding “3,4-Dihydroxybenzaldehydesemicarbazone-4-β-D-ribofuranoside [Example 1.5]”, the values for the Colony appearance entry in experiment [3] and in [4] were “diffuse brown colonies” and “cream colonies”, respectively.

Regarding `O=Cc1ccc(OC2OC(CO)C(O)C2O)c(O)c1` [Example 1.4, 3,4-Dihydroxybenzaldehyde-4β-D-ribofuranoside sodium salt], the Colony appearance entry in experiment [4] is on record as “cream colonies”; in experiment [5], “Dark brown colonies”; in experiment [6] it was “Dark brown colonies”; in [7], “paler colonies”; in [8], “paler colonies”.

As to `O=C1/C(=C/c2ccc(OC3OC(CO)C(O)C3O)c(O)c2)Oc2ccccc21` [Example 1.7, 3′,4′-Dihydroxyaurone-4′-β-D-ribofuranoside], in experiment [3], the Colony appearance entry is recorded as “pale brown colonies”.

In the case of `COc1c(-c2ccc(O[C@@H]3O[C@H](CO)[C@@H](O)[C@H]3O)c(O)c2)oc2ccccc2c1=O` [Example 6, 3′4′-dihydroxy-3-methoxy-flavone-4′-β-D-ribofuranoside], the Colour of colonies entry in [9] (No metal) is on record as “Diffuse yellow”; in experiment [9] (metal salt Al 500 mg/l) it was “Yellow”; in [9] (metal salt Ba 500 mg/l), “Yellow”; in experiment [9] (metal salt Bi 500 mg/l), “Rusty orange”; in experiment [9] (metal salt Co 500 mg/l), “No growth”; in experiment [9] (metal salt Fe 500 mg/l), “Brown”. For the same compound, the Colour of colonies entry in experiment [9] (metal salt Mn 500 mg/l) was “Pale orange”; in experiment [9] (metal salt Sn 500 mg/l), “Yellow”; in experiment [9] (metal salt Sr 500 mg/l), “Yellow”; in experiment [9] (metal salt Zn 500 mg/l) it was “No growth”.

On to `O=[N+]([O-])c1ccc(O[C@@H]2O[C@H](COP(=O)(O)O)[C@@H](O)[C@H]2O)cc1` [p-Nitrophenyl β-D-ribofuranoside-5-phosphate], for which, in experiment [10], the Activity as substrate entry was “inactive”.
